In the NIST ThermoML archive (doi:10.1016/j.tca.2012.07.004):

Assay: xn = mol fraction of the nth substance listed
Settings: 101 kPa, Liquid; for mass density: Vibrating tube method; for viscosity: Vibrating wire viscometry; for speed of sound: ultrasonic interferometer

CCN(CC)CC.O=P(O)(O)O [triethylammonium dihydrogen phosphate] + CN1CCCC1=O
Settings	mass density, 298.15 K [kg/m3]	mass density, 303.15 K [kg/m3]	speed of sound, 298.15 K [m/s]	speed of sound, 303.15 K [m/s]	viscosity, 298.15 K [mPa·s]	viscosity, 303.15 K [mPa·s]
x1 = 0.0115	1032	1027.87	1574	1558	1.95	0.97
x1 = 0.0257	1036.63	1032.6	1580	1570	2.23	1.24
x1 = 0.0702	1047.93	1044.24	1602	1595	2.5	2.49
x1 = 0.0995	1054.84	1051.16	1624	1620	3.22	3.17
x1 = 0.1498	1065.79	1061.32	1657	1656	4.42	3.8
x1 = 0.2409	1081.01	1076.95	1711	1706	6.12	5.27
x1 = 0.282	1086.8	1083.03	1735	1719	6.52	5.55
x1 = 0.3482	1094.7	1090.71	1763	1753	7.12	6.53
x1 = 0.4709	1105.46	1101.42	1806	1796	10.71	8.32
x1 = 0.6161	1114.03	1110.51	1831	1820	17.12	13.52
x1 = 0.6975	1117.42	1114.2	1836	1826	22.9	18.9
x1 = 0.7906	1120.24	1117.34	1829	1819	31.5	26.91
x1 = 0.9135	1123.51	1121.34	1817	1804	47.02	41.33
x1 = 0.9579	1124.64	1123.03	1809	1791	53.91	49.31
x1 = 1	1125.7	1124.68	1794	1769	64.31	57.1
